Data: patent US8324209B2, “Pesticidal compositions” (Dow AgroSciences, LLC, priority 2008, dated 2012)

test system: cotton aphid (Aphis gossypii); test: Insecticidal test for cotton aphid in foliar spray assay on squash; type: in vivo; conditions: 200 ppm foliar spray on squash cotyledons; live aphids counted after 3 days; Corrected % Control (Abbott's formula); 4 replications
Method: The compounds identified in the foregoing examples were tested against cotton aphid using procedures described hereinafter. Insecticidal Test for Cotton Aphid (Aphis gossypii) in Foliar Spray Assay Squash seedlings with fully expanded cotyledon leaves were trimmed to one cotyledon per plant and infested with cotton aphid (wingless adults and nymphs) 1 day prior to chemical application. Each plant was examined before chemical application to ensure uniform infestation (ca. 30-70 aphids per plant). Compounds (2 mg) were dissolved in 2 mL of acetone/methanol (1:1) solvent, forming stock solutions of 1000 ppm. The stock solutions were diluted 5× with 0.025% Tween 20 in H2O to obtain a solution at 200 ppm. A hand-held Devilbiss aspirator type sprayer was used to apply the spray solutions until runoff to both sides of the squash cotyledon leaves. Four plants (4 replications) were used for each compound. Reference plants (solvent check) were sprayed with the diluent only. Treated plants were held in a holding room for 3 days at approximately 23° C. and 40% relative humidity (RH) before the number of live aphids on each plant was recorded. Insecticidal activity was measured by Corrected % Control using Abbott's correction formula and presented in Table 1-Activity: Corrected % Control=100*(X−Y)/X • where X=No. of live aphids on solvent check plants • Y=No. of live aphids on treated plants Results are shown in Table 1.

Row | SMILES | % Control at ppm, against cotton aphid on squash (foliar spray)
1 | CC(c1cnc(Cl)nc1)S(C)(=O)=NC#N (stereo not drawn) [Compound 1, [1-(2-chloropyrimidin-5-yl)ethyl](methyl)oxido-λ^4-sulfanylidenecyanamide] | A (80-100)
2 | CS(=O)(Cc1ccc(Cl)nn1)=NC#N (stereo not drawn) [Compound 2, [(3-chloropyridazin-6-yl)methyl](methyl)oxido-λ^4-sulfanylidenecyanamide] | A (80-100)
3 | CC(c1cnc(C(F)(F)F)nc1)S(C)(=O)=NC#N (stereo not drawn) [Compound 3, methyl(oxido){1-[2-(trifluoromethyl)pyrimidin-5-yl]ethyl}-λ^4-sulfanylidenecyanamide] | A (80-100)
